Values after ≈ are worked out from the molar mass of the structure shown.
How the values were obtained:
[1] = tested on: S. pneumoniae; test: mouse subcutaneous abscess model; type: in vivo; conditions: for average log10 CFU/gram of abscess: S. pneumoniae 1629, 10 mg/Kg PO
Experimental: Example. Efficacy was evaluated in several infection models. […] PD50s were determined 24 hr post infection. CEM-101 was further evaluated in a subcutaneous abscess mouse model against S. pneumoniae. CD-1 female mice were infected via SC injection of bacteria mixed with cyclodextran beads. Two hr post infection, mice received a single oral dose of CEM 101 or control agents. At 48 hr post dose, mice were euthanized, abscesses aseptically removed and bacteria enumerated. CFU per abscess was determined and compared to the untreated control. […] 24 hr post treatment, the thighs were processed and CFU/gram of thigh determined.
(§1) Example. Mouse Subcutaneous Abscess. Bacteria were prepared from an overnight plate culture by re-suspending in saline and adjusting the suspension to a 0.1 OD at 625 nm of a 1:10 dilution. The adjusted bacterial suspension was mixed 1:2 with cyclodextran beads prepared as per package instructions. The right flanks of the mice were shaven and injected subcutaneously with 0.2 ml of the bacterial inoculum. Two hours post infection mice were treated via oral gavage with either test article or control drug. 48 hours post infection, mice were euthanized, abscesses aseptically removed, homogenized, serially diluted and plated on bacterial growth agar. After overnight incubation, colonies were counted and CFUs/gram of abscess were determined.
Example. The ability of CEM101 to reduce the microbial load in abscess infection model was also assessed against S. pneumoniae isolates.

[2] = tested on: S. pneumoniae; test: microbe, parasite or virus in culture; type: cell-based; conditions: Streptococcus pneumoniae
[3] = tested on: intraphagocytic L. pneumophila ATCC 33153 (THP-1); type: cell-based; conditions: intracellular L. pneumophila ATCC 33153
[4] = tested on: S. pyogenes ATCC 8668; test: mouse subcutaneous abscess model; type: in vivo; conditions: 48 hr. post infection
Experimental: as §1
Example. Mouse Subcutaneous Abscess˜S. pyogenes ATCC 8668 (Average Log10 CFU/gram of Abscess). Abscess processing 48 hours post infection.

[5] = tested on: S. pneumoniae; test: neutropenic mouse thigh infection; type: in vivo; conditions: QD, PO
[6] = tested on: pneumococci; test: microbe, parasite or virus in culture; type: cell-based, S. pneumoniae; conditions: Streptococcus pneumoniae
[7] = tested on: streptococci; test: organism not typed; type: cell-based
[8] = tested on: M. catarrhalis; test: microbe, parasite or virus in culture; type: cell-based; conditions: Moraxella catarrhalis
[9] = tested on: S. pneumoniae; test: neutropenic mouse thigh infection; type: in vivo; conditions: PO
Experimental: Example. Neutropenic Mouse Thigh Infection. Mice were rendered neutropenic with IP injections of cyclophosamide at day −4 and day −1 of 150 mg/Kg and 100 mg/Kg, respectively. On day 0 mice were infected with approximately 5×10^5 CFU/ml of bacteria in a 0.1 ml volume into the right thigh. At 1.5 hours post infection mice received treatment via oral gavage. One group of infected mice were euthanized and thigh processed for bacterial titers to serve as T=0 controls. Twenty-four hours post treatment, the remaining mice were euthanized, thighs aseptically removed, weighed, homogenized, serially diluted and plated on bacterial growth media. CFUs per gram of thigh were calculated after overnight incubation of bacterial plates. The amount of test article required to achieve 1, 2, and 3 loge reductions from 24 hour control thighs were calculated. Additional studies were performed that fractionated the single treatment dose (Q24) into two (Q12), three (Q8) and four (Q6) equivalent doses to determine the pharmacodynamic nature of this compound. Further analysis includes static dose, EC50, 1 log kill and maximal effect (Emax).

[10] = tested on: S. pneumoniae; test: MIC of the strains of the mouse systemic infection model; type: cell-based; conditions: Streptococcus pneumoniae
[11] = tested on: S. pneumoniae; test: microbe, parasite or virus in culture; type: cell-based; conditions: for MIC: Streptococcus pneumoniae

`CC[C@H]1OC(=O)[C@H](C)[C@@H](O[C@H]2C[C@@](C)(OC)[C@@H](O)[C@H](C)O2)[C@H](C)[C@@H](O[C@@H]2O[C@H](C)C[C@H](N(C)C)[C@H]2O)[C@](C)(OC)C[C@@H](C)C(=O)[C@H](C)[C@@H](O)[C@]1(C)O` [CLR, clarithromycin] was tested, and the “average log10 CFU/gram of abscess” value ([1]; 24 hours) was about 5.5 log10 CFU/gram, the “average log10 CFU/gram of abscess” value ([1]; 48 hours) was about 5.5 log10 CFU/gram and the “log decrease of CFU from untreated mice” value ([1]; abscess, 10 mg/Kg QD dose) was 1.5 log10. The MIC90 [2] was over 32 µg/mL, the “Cs, static concentration” value [3] was 0.12 mg/L and the “Average Log10 CFU/gram of Abscess” value ([4]; 10 mg/Kg) was 7.63 Log10 CFU/gram. For the same compound, the “Average Log10 CFU/gram of Abscess” value ([4]; 20 mg/Kg) was 7.82 Log10 CFU/gram, the “Dose for 1 log10 Reduction from 24 hour controls” value ([5]; S. pneumoniae 1629) was 4.5 mg/Kg and the “Dose for 3 log10 Reduction from 24 hour controls” value ([5]; S. pneumoniae 1629) was 13.5 mg/Kg. The “Dose for 1 log10 Reduction from 24 hour controls” value ([5]; S. pneumoniae 6303) was 5.5 mg/Kg, the “Dose for 2 log10 Reduction from 24 hour controls” value ([5]; S. pneumoniae 6303) was 9.2 mg/Kg and the “Dose for 3 log10 Reduction from 24 hour controls” value ([5]; S. pneumoniae 6303) was 14.0 mg/Kg. For the same compound, the MIC50 ([6]; pneumococci, L4 mutations (27)) was 16 µg/mL (≈ 21.4 µM), the MIC90 ([6]; pneumococci, L4 mutations (27)) was 32 µg/mL (≈ 42.8 µM) and the MIC ([6]; read-out: MIC range, pneumococci, L4 mutations (27)) was 1 to 32 µg/mL (≈ 1.34 to 42.8 µM). For the same compound, the MIC50 [7] was 0.03 µg/mL (≈ 0.0401 µM), the MIC90 [7] was 0.03 µg/mL (≈ 0.0401 µM) and the “MIC Range” value [7] was “≦0.008-0.25 μg/ml”. For the same compound, the MIC90 [8] was 0.12 µg/mL (≈ 0.16 µM), the “Max. change in log10CFUs from 24 hr. controls” value ([9]; S. pneumoniae 1629) was −5.75 log10CFUs and the “Dose for 2 log10 Reduction from 24 hour controls” value ([9]; S. pneumoniae 1629, QD) was 9.0 mg/Kg. For the same compound, the “Max. change in log10CFUs from 24 hr. controls” value ([9]; S. pneumoniae 6303) was −5.20 log10CFUs, the MIC ([10]; S. pneumoniae (macrolide susceptible)) was over 16 µg/mL and the MIC ([10]; S. pneumoniae (mefR), read-out: MIC) was 0.5 µg/mL. For the same compound, the MIC ([10]; S. pneumoniae serotype 19A, read-out: MIC) was over 16 µg/mL, the “strains with resistant clones / strains tested” value ([11]; S. pneumoniae) was 5/6 and the “Parental MICs” value ([11]; S. pneumoniae, 8 strains with varying resistotypes) was 0.016 to 16 µg/mL. For the same compound, the MIC ([11]; read-out: Initial MIC, strain 24 Macrolide-R [erm(B)], parent) was over 64 µg/mL, the MIC ([11]; read-out: Initial MIC, strain 1076 Macrolide-R [erm(B)&mef(A)], parent) was over 64 µg/mL and the MIC ([11]; read-out: Initial MIC, strain 1077 Macrolide-S, parent) was 0.016 µg/mL (≈ 0.0214 µM). For the same compound, the MIC ([11]; read-out: Initial MIC, strain 1635 Macrolide-R [erm(A)], parent) was 0.5 µg/mL (≈ 0.668 µM), the MIC ([11]; read-out: Initial MIC, strain 2686 Macrolide-R [L4 mutation], parent) was 8 µg/mL (≈ 10.7 µM) and the MIC ([11]; read-out: Initial MIC, strain 3009 Macrolide-R [23SrRNA mutation], parent) was 16 µg/mL (≈ 21.4 µM). The MIC ([11]; read-out: Initial MIC, strain 3665 Macrolide-R [mef(A)], parent) was 2 µg/mL (≈ 2.67 µM), the MIC ([11]; read-out: Initial MIC, strain 7127 Macrolide-S [S20N in L4, A105V in L22], parent) was 0.03 µg/mL (≈ 0.0401 µM) and the MIC ([11]; read-out: MIC of parents of resistant clones, S. pneumoniae (CEM-101: 7 strains)) was 0.03 to 16 µg/mL. For the same compound, the MIC ([11]; read-out: Selected Resistance MIC, strain 1077 Macrolide-S, after serial passages in the drug) was 0.008 µg/mL (≈ 0.0107 µM), the MIC ([11]; read-out: Selected Resistance MIC, strain 1635 Macrolide-R [erm(A)], after serial passages in the drug) was over 64 µg/mL and the MIC ([11]; read-out: Selected Resistance MIC, strain 2686 Macrolide-R [L4 mutation], after serial passages in the drug) was over 64 µg/mL. For the same compound, the MIC ([11]; read-out: Selected Resistance MIC, strain 3009 Macrolide-R [23SrRNA mutation], after serial passages in the drug) was over 64 µg/mL, the MIC ([11]; read-out: Selected Resistance MIC, strain 3665 Macrolide-R [mef(A)], after serial passages in the drug) was 16 µg/mL (≈ 21.4 µM) and the MIC ([11]; read-out: Selected Resistance MIC, strain 7127 Macrolide-S [S20N in L4, A105V in L22], after serial passages in the drug) was 16 µg/mL (≈ 21.4 µM). The “days until resistant clones (MIC increase)” value ([11]; daily passages, min. 14, max. 50) was 14 to 49 days, the “Retest MIC after 10 Antibiotic-free Subcultures” value ([11]; strain 24 Macrolide-R [erm(B)], clone selected with CEM-101) was over 64 µg/mL and the “Retest MIC after 10 Antibiotic-free Subcultures” value ([11]; strain 24 Macrolide-R [erm(B)], clone selected with TEL) was over 64 µg/mL. The “Retest MIC after 10 Antibiotic-free Subcultures” value ([11]; strain 1076 Macrolide-R [erm(B)&mef(A)], clone selected with CEM-101) was over 64 µg/mL, the “Retest MIC after 10 Antibiotic-free Subcultures” value ([11]; strain 1076 Macrolide-R [erm(B)&mef(A)], clone selected with TEL) was over 64 µg/mL and the “Retest MIC after 10 Antibiotic-free Subcultures” value ([11]; strain 1077 Macrolide-S, clone selected with AZI) was over 64 µg/mL. For the same compound, the “Retest MIC after 10 Antibiotic-free Subcultures” value ([11]; strain 1077 Macrolide-S, clone selected with CEM-101) was 0.06 µg/mL, the “Retest MIC after 10 Antibiotic-free Subcultures” value ([11]; strain 1077 Macrolide-S, clone selected with CLN) was over 64 µg/mL and the “Retest MIC after 10 Antibiotic-free Subcultures” value ([11]; strain 1077 Macrolide-S, clone selected with TEL) was over 64 µg/mL. The “Retest MIC after 10 Antibiotic-free Subcultures” value ([11]; strain 1635 Macrolide-R [erm(A)], clone selected with AZI) was over 64 µg/mL, the “Retest MIC after 10 Antibiotic-free Subcultures” value ([11]; strain 1635 Macrolide-R [erm(A)], clone selected with CEM-101) was 1 µg/mL and the “Retest MIC after 10 Antibiotic-free Subcultures” value ([11]; strain 1635 Macrolide-R [erm(A)], clone selected with CLN) was 0.5 µg/mL. The “Retest MIC after 10 Antibiotic-free Subcultures” value ([11]; strain 1635 Macrolide-R [erm(A)], clone selected with CLR) was over 64 µg/mL, the “Retest MIC after 10 Antibiotic-free Subcultures” value ([11]; strain 2686 Macrolide-R [L4 mutation], clone selected with CEM-101) was 32 µg/mL and the “Retest MIC after 10 Antibiotic-free Subcultures” value ([11]; strain 2686 Macrolide-R [L4 mutation], clone selected with CLR) was over 64 µg/mL. The “Retest MIC after 10 Antibiotic-free Subcultures” value ([11]; strain 2686 Macrolide-R [L4 mutation], clone selected with TEL) was 16 µg/mL, the “Retest MIC after 10 Antibiotic-free Subcultures” value ([11]; strain 3009 Macrolide-R [23SrRNA mutation], clone selected with CEM-101) was over 64 µg/mL and the “Retest MIC after 10 Antibiotic-free Subcultures” value ([11]; strain 3009 Macrolide-R [23SrRNA mutation], clone selected with CLR) was 64 µg/mL. For the same compound, the “Retest MIC after 10 Antibiotic-free Subcultures” value ([11]; strain 3665 Macrolide-R [mef(A)], clone selected with CEM-101) was 4 µg/mL, the “Retest MIC after 10 Antibiotic-free Subcultures” value ([11]; strain 3665 Macrolide-R [mef(A)], clone selected with CLR) was 8 µg/mL and the “Retest MIC after 10 Antibiotic-free Subcultures” value ([11]; strain 3665 Macrolide-R [mef(A)], clone selected with TEL) was 2 µg/mL. For the same compound, the “Retest MIC after 10 Antibiotic-free Subcultures” value ([11]; strain 7127 Macrolide-S [S20N in L4, A105V in L22], clone selected with AZI) was 0.5 µg/mL, the “Retest MIC after 10 Antibiotic-free Subcultures” value ([11]; strain 7127 Macrolide-S [S20N in L4, A105V in L22], clone selected with CEM-101) was 0.125 µg/mL and the “Retest MIC after 10 Antibiotic-free Subcultures” value ([11]; strain 7127 Macrolide-S [S20N in L4, A105V in L22], clone selected with CLN) was 0.016 µg/mL. The “Retest MIC after 10 Antibiotic-free Subcultures” value ([11]; strain 7127 Macrolide-S [S20N in L4, A105V in L22], clone selected with CLR) was 16 µg/mL and the “Retest MIC after 10 Antibiotic-free Subcultures” value ([11]; strain 7127 Macrolide-S [S20N in L4, A105V in L22], clone selected with TEL) was 0.06 µg/mL.

From US9901592B2 (priority 2008, dated 2018)
